From US20130065928A1, “BIOMARKERS FOR PI3K-DRIVEN CANCER” (WYETH LLC, priority 2010, published 2013)

Columns and labels:
PKN3-T860 = test: Turn motif (T860) phosphorylation of Y27632-primed PKN3 after kinase inhibitor treatment (Western blot); assay type: cell-based, human; conditions: WT and KD PKN3, doxycycline 1 μg/ml 5 hours, primed with 10 μM Y27632, inhibitor 7 hours; FIGS. 4 and 5
From the text: (§1) The full-length cDNA of human PKN3 (WT or wt) was amplified by PCR and cloned into a GST-fusion expression vector under the control in a doxycycline (Dox)-inducible promoter. A kinase dead (KD or kd) version of PKN3, which comprises a K588R substitution, was also cloned into the same vector using the same strategy. The proteins were expressed in HEK293T cells transfected with the PKN3 WT and KD constructs.
(§2) For protein extraction, cells were washed twice with cold phosphate-buffered saline (PBS) and lysed at 4° C. in lysis buffer containing 20 mM Tris (pH 7.5), 137 mM NaCl, 15% (vol/vol) glycerol, 1% (vol/vol) Nonidet P-40 (NP-40), 2 mM phenylmethylsulfonyl fluoride, […] of aprotinin per ml, […] leupeptin, 2 mM benzamidine, 1 mM sodium vanadate, 25 mM β-glycerolphosphate, 50 mM NaF, and 10 mM Na-pyrophosphate. Lysates were cleared by centrifugation at 14,000×g for 5 min, and aliquots of the lysates were analyzed for protein expression and enzyme activity (see below). Samples were separated by sodium dodecyl sulfate-polyacrylamide gel electrophoresis (SDS-PAGE) and transferred to nitrocellulose filters (Schleicher & Schuell). […] Bound antibody was detected with anti-mouse-, anti-goat, or anti-rabbit-conjugated alkaline phosphatase (Santa Cruz Biotechnology) in TBST, washed, and developed with nitroblue tetrazolium and 5-bromo-4-chloro-3-indolylphosphate (Promega). […]

PKN3-T718 = test: Activation loop (T718) phosphorylation of Y27632-primed PKN3 after kinase inhibitor treatment (Western blot); assay type: cell-based, human; conditions: WT and KD PKN3, doxycycline 1 μg/ml 5 hours, primed with 10 μM Y27632, inhibitor 7 hours; FIGS. 4 and 5
From the text: as §1, §2

S6K-ST389 = test: Phosphorylation of S6K-ST389, a target of mTORC1 (Western blot); assay type: cell-based; conditions: PKN3-transfected cells, inhibitor 7 hours; FIGS. 4 and 5
Protocol: (§3) For protein extraction, cells were washed twice with cold phosphate-buffered saline (PBS) and lysed at 4° C. in lysis buffer containing 20 mM Tris (pH 7.5), 137 mM NaCl, 15% (vol/vol) glycerol, 1% (vol/vol) Nonidet P-40 (NP-40), 2 mM phenylmethylsulfonyl fluoride, […] of aprotinin per ml, […] leupeptin, 2 mM benzamidine, 1 mM sodium vanadate, 25 mM β-glycerolphosphate, 50 mM NaF, and 10 mM Na-pyrophosphate. Lysates were cleared by centrifugation at 14,000×g for 5 min, and aliquots of the lysates were analyzed for protein expression and enzyme activity (see below). Samples were separated by sodium dodecyl sulfate-polyacrylamide gel electrophoresis (SDS-PAGE) and transferred to nitrocellulose filters (Schleicher & Schuell). Filters were blocked in TBST buffer (10 mM Tris-HCl [pH 7.5], 150 mM NaCl, 0.05% [vol/vol] Tween 20, 0.5% [wt/vol] sodium azide) containing 5% (wt/vol) dried milk. The respective antibodies were added in TBST at appropriate dilutions. Bound antibody was detected with anti-mouse-, anti-goat, or anti-rabbit-conjugated alkaline phosphatase (Santa Cruz Biotechnology) in TBST, washed, and developed with nitroblue tetrazolium and 5-bromo-4-chloro-3-indolylphosphate (Promega). Alternatively, horseradish peroxidase-conjugated secondary antibodies were used and developed by enhanced chemiluminescence (Amersham).
(§4) PKN antibodies have been described in Leenders, 2004. […]

AKT-S473 = test: Phosphorylation of AKT-S473, a target of mTORC2 (Western blot); assay type: cell-based; conditions: PKN3-transfected cells, inhibitor 7 hours; FIGS. 4 and 5
Protocol: as §3, §4

PKN1 = test: Phosphorylated PKN1 (Western blot); assay type: cell-based; conditions: PKN3-transfected cells, inhibitor 7 hours; FIGS. 4 and 5, panels C
Protocol: as §3, with “(Amersham). […]” for “(Amersham).”

PKN2 = test: Phosphorylated PKN2 (Western blot); assay type: cell-based; conditions: PKN3-transfected cells, inhibitor 7 hours; FIGS. 4 and 5, panels C
Protocol: as §3, with “(Amersham). […]” for “(Amersham).”

PKN3 = biological target: T1, PKN3 (Homo sapiens, UniProt Q6P5Z2); test: Kinase activity of PKN3 in transfected cells, phospho-GSKα read-out (Western blot); assay type: cell-based; conditions: cells transfected with WT PKN3; changing concentrations; FIG. 2
T1 construct: The full-length cDNA of human PKN3 (WT or wt) was amplified by PCR and cloned into a GST-fusion expression vector; GST; expressed in transfected cells; host or cells: HEK293T
T1 sequence (Q6P5Z2 whole entry, the tested form may be a part): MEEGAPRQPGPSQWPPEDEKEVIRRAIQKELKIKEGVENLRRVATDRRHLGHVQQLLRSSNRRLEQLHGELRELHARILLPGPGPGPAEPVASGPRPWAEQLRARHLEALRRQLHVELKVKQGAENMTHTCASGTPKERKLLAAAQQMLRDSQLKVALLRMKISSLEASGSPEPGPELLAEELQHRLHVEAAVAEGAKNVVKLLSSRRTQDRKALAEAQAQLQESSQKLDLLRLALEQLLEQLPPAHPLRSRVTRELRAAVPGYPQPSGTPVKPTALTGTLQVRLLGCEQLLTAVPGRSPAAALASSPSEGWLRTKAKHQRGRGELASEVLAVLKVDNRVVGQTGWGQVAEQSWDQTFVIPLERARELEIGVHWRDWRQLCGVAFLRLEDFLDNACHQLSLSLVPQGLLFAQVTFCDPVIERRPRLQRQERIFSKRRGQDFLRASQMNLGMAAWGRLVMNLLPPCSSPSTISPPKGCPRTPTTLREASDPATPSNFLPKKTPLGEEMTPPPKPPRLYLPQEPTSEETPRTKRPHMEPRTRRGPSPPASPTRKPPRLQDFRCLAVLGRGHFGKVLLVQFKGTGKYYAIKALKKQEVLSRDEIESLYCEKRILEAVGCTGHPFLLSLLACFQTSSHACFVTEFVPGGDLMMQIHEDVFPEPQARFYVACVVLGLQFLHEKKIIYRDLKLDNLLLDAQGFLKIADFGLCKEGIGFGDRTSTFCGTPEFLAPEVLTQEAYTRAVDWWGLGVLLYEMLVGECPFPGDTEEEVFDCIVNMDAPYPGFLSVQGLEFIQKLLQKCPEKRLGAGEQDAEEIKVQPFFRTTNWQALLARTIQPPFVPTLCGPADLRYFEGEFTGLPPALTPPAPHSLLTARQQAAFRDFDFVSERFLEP
From the text: as §1, with “constructs. […] WT PKN3 is phosphorylated at the turn motif threonine (P*-PKN3^T860) and phosphorylates the GSKα substrate, whereas the KD version does neither (FIG. 1).” for “constructs.”
as §3
Various ATP-type kinase inhibitors were assessed for their ability to inhibit the kinase activity of both recombinant wildtype (WT) and kinase dead (KD) versions of PKN3.

kinase dead PKN3 = biological target: T2, kinase dead PKN3 (Homo sapiens, UniProt Q6P5Z2, K588R); test: Priming of kinase dead PKN3 for turn motif threonine phosphorylation by ATP binding pocket competitive inhibitors (Western blot); assay type: cell-based; conditions: KD PKN3 (K588R) in transfected cells; changing concentrations; FIG. 3
T2 construct: The full-length cDNA of human PKN3 (WT or wt) was amplified by PCR and cloned into a GST-fusion expression vector; GST; expressed in transfected cells; host or cells: HEK293T
T2 sequence (Q6P5Z2 whole entry K588R, the tested form may be a part): as the sequence (Q6P5Z2 whole entry, the tested form may be a part) above, with K588R counted along it
From the text: as §1, with “constructs. […] WT PKN3 is phosphorylated at the turn motif threonine (P*-PKN3^T860) and phosphorylates the GSKα substrate, whereas the KD version does neither (FIG. 1).” for “constructs.”
as §3

[1] = test system: HEK293T cells transfected with wild-type PKN3; test: PKN3-induced morphology changes in cells (photomicrographs); assay type: cell-based; conditions: FIG. 6, panel C
From the text: FIG. 6 depicts photomicrographs of HEK293T cells transfected with wild-type (panels A, B and C) or kinase-dead (panels D, E and F) PKN3 constructs under control of a doxycycline responsive promoter, in the absence of doxycycline (panels A and D), in the presence of doxycycline (panels B and E) or in the presence of doxycycline and WAY-125132 (panels C and F).
The effects of WAY-125132 on PKN3-induced morphology changes in cells were examined.

Compound	inhibition of PKN3 T860 phosphorylation (PKN3-T860)	inhibition of PKN3 T718 phosphorylation (PKN3-T718)	inhibition of phosphorylation of S6K-ST389 (S6K-ST389)	inhibition of phosphorylation of AKT-S473 (AKT-S473)	effect on PKN1 (PKN1)	effect on PKN2 (PKN2)	inhibition of kinase activity of kinase active phosphorylated PKN3 (phospho-GSKα read-out) (PKN3)	priming of kinase dead PKN3 to become phosphorylated at the turn motif threonine (kinase dead PKN3)	effect on transformed phenotype of doxycycline treated cells transfected with WT PKN3 [1]
CO[C@H]1C[C@@H]2CC[C@@H](C)[C@@](O)(O2)C(=O)C(=O)N2CCCC[C@H]2C(=O)O[C@H]([C@H](C)C[C@@H]2CC[C@@H](OC(=O)C(C)(CO)CO)[C@H](OC)C2)CC(=O)[C@H](C)/C=C(\C)[C@@H](O)[C@@H](OC)C(=O)[C@H](C)C[C@H](C)/C=C/C=C/C=C/1C [CCI-779, (3S,6R,7E,9R,10R,12R,14S,15E,17E,19E,21S,23S,26R,27R,34aS)-9,10,12,13,14,21,22,23,24,25,26,27,32,33,34,34a-Hexadecahydro-9,27-dihydroxy-3-[(1R)-2-[(1S,3R,4R)-4-hydroxy-3-methoxycyclohexyl]-1-methylethyl]-10,21-dimethoxy-6,8,12,14,20,26-hexamethyl-23,27-epoxy-3H-pyrido[2,1-c][1,4]oxaazacyclohentriacontine-1,5,11,28,29(4H,6H,31H)-pentone 4′-[2,2-bis(hydroxymethyl)propionate]]	had no effect	had no effect	inhibit S6K-ST389	had no effect	had no effect	had no effect	–	–	–
Oc1ccc(-c2nc(-c3ccncc3)c(-c3ccc(F)cc3)[nH]2)cc1 [SB202190]	–	–	–	–	–	–	inhibit the kinase activity of kinase active phosphorylated PKN3 in a concentration dependent manner	primed kinase dead PKN3 to become phosphorylated at the turn motif threonine in a concentration dependent manner	–
CCc1[nH]c(-c2ccc(OC)cc2)nc1-c1ccncc1 [SB202474]	–	–	–	–	–	–	not	not	–
Cl.Cl.N=C(N)NN=C(Cn1ccnc1)c1ccc(Cl)cc1Cl [WAY-125132, 2-[1-(2,4-Dichlorophenyl)-2-(1H-imidazol-1-yl)ethylidene]hydrazinecarboximidamide dihydrochloride]	inhibit T860 phosphorylation in a dose dependent manner	not T718 phosphorylation	inhibit the phosphorylation of S6K-ST389	inhibit the phosphorylation	–	–	–	–	reversed this effect
C[C@@H](N)[C@H]1CC[C@H](C(=O)Nc2ccncc2)CC1 [Y27632]	–	–	–	–	–	–	inhibit the kinase activity of kinase active phosphorylated PKN3 in a concentration dependent manner	primed kinase dead PKN3 to become phosphorylated at the turn motif threonine in a concentration dependent manner	–
